Data taken from patent US20190134034A1, “Method of Treating Liver Cancer” (ASLAN Pharmaceuticals Pte. Ltd., priority 2016, published 2019).
“Also recorded” adds a separate entry of the source.

Experiments:
[1] = system: phosphorylation of HER1-3, RAS/RAF/MEK/MAPK, p70S6K, S6 ribosomal, 4EBP1, Cdc-2 and retinoblastoma; assay: Western blot analysis of tumour lysates from HCC29-0909A xenograft (pharmacodynamics); type: in vivo, SCID mice; conditions: Western blot of tumour lysates after two and fourteen days of treatment
[2] = system: HCC29-0909A HCC patient-derived xenograft (co-expression of HER1, HER2 and HER3); assay: HCC patient-derived xenograft model HCC29-0909A in SCID mice, tumour volume; type: in vivo; conditions: HCC29-0909A PDX in SCID mice
Experimental: A HCC patient-derived xenograft model in SCID mice (HCC29-0909A) with co-expression of HER1, HER2 and HER3 receptors [Cancer Res Aug. […] Dosing with varlitinib commenced when the tumours reached the size of approximately 100-150 mm^3. Bi-dimensional measurements are performed twice a week and tumour volumes are calculated based on the following formula: Tumour volume=[(Length)×(Width^2)×(p/6)].
Groups of mice were dosed as follows:
Group 1 control group received vehicle only
Group 2 received 25 mg/Kg of ASLAN001 BID (twice daily),
Group 3 received 50 mg/Kg of ASLAN001 BID (twice daily), and
Group 4 received 100 mg/Kg of ASLAN001 BID (twice daily).

[3] = system: MAPK pathway; assay: Pharmacodynamics in HCC01-0708 PDX model; type: in vivo; conditions: after twelve days of treatment
[4] = system: PLC/PRF/5 cells; assay: Apoptosis (AnnexinV) profile of PLC/PRF/5 cells; type: cell-based; conditions: 48 hour culture, increasing concentration
Experimental: (§1) An in vitro experiment was conducted to investigate whether varlitinib induced apoptosis in HCC cell lines. HCC cells were grown in cell culture medium with 10% FBS and with varying concentrations of varlitinib. Apoptosis profiles were analysed at 24 hour and 48 hour timepoints, using Muse Annexin V & Dead Cell Assay kit and Muse Cell Analyser. Early apoptosis cells (identified as Annexin V-PE positive and Dead Cell Marker negative) were measured and plotted.

[5] = system: Huh7-SorR cells; assay: Early apoptosis in sorafenib resistant cells (Muse Annexin V & Dead Cell Assay); type: cell-based; conditions: high dose of varlitinib
Experimental: as §1

[6] = system: HCC cell lines; assay: Early apoptosis in HCC cell lines (Muse Annexin V & Dead Cell Assay); type: cell-based; conditions: all HCC cell lines tested; 48 hours of incubation
Experimental: as §1

[7] = system: HCC01-0708 HER2/HER3 co-expressing PDX model of HCC; assay: HCC patient-derived xenograft model HCC01-0708, tumour volume; type: in vivo; conditions: HCC01-0708 PDX; 25, 50 or 100 mg/kg BID

C[C@@H]1COC(Nc2ccc3ncnc(Nc4ccc(OCc5nccs5)c(Cl)c4)c3c2)=N1 [varlitinib, (R)-N4-[3-Chloro-4-(thiazol-2-ylmethoxy)-phenyl]-N6-(4-methyl-4,5,-dihydro-oxazol-2-yl)-quinazoline-4,6-diamine]
phosphorylation of HER1-3, RAS/RAF/MEK/MAPK, p70S6K, S6 ribosomal, 4EBP1, Cdc-2 and retinoblastoma [1]: strongly inhibited | tumor regression ([2]; 100 mg/kg BID): complete tumor regression | tumour growth inhibition (tumour volume) ([2]; 25, 50 or 100 mg/kg BID): potently inhibited tumour growth; also recorded: dose-dependent tumour volume growth inhibition | inhibition of the MAPK pathway [3]: robust inhibition | percentage of apoptotic cells [4]: increase in percentage of apoptotic cells correlates with increasing varlitinib concentration | early apoptosis [5]: ~70% | induction of early apoptosis (Annexin V-PE positive, Dead Cell Marker negative) [6]: able to induce early apoptosis | tumour growth inhibition (tumour volume) [7]: inhibited tumour growth; also recorded: dose-dependent tumour volume growth inhibition
